According to US9802927B2, “Oxadiazine compounds and methods of use thereof” (Denali Therapeutics, Inc., priority 2015, dated 2017):

Tested on: Aβ42
Assay: In vitro cell screening assay in H4 cells expressing human APP751: Aβ42 by sandwich ELISA
Type: cell-based
Conditions: compounds 0.003-10 μM, incubated overnight (16-18 h), sandwich ELISA of supernatant
Description: Human neuroglioma H4 cells were transfected with a pcDNA3.1 plasmid expressing human wild type APP751 cDNA and a stable cell line was generated using G418 selection. Cells were plated at 15,000 cells/well in Costar 96-well plates and placed at 37° C. and 5% CO2. Six hours after plating, cells were washed three times with Pro293™ chemically defined medium, followed by addition of compounds (0.003-10 μM, final DMSO concentration of 0.33%). Plates were incubated overnight (16-18 h) and supernatant was removed for quantification of Aβ peptides by sandwich ELISA. Cytotoxicity was evaluated using Cell-Titer 96W AQueous One Solution Cell Proliferation Assay according to the manufacturer's protocol.
Aβ peptide levels were quantified by sandwich ELISA. 96-well plates were coated with C-terminal specific Aβ antibodies recognizing either Aβ37, Aβ38, Aβ40, Aβ42, Aβ43 or a N-terminal specific Aβ antibody to detect Aβ 1-x. Plates were then blocked overnight at 4° C. with 1% bovine serum albumin (BSA) in PBS-T. Plates were washed and 100 μl of cultured cell supernatant or synthetic Aβ peptide standards and a detection antibody (4G8-HRP) were applied to the blocked plate and incubated overnight at 4° C. The next day, wells were washed before the addition of detection substrate (TMB peroxidase). Plates were then read for absorbance at 450 nm on a Molecular Devices SpectraMax M5e Microplate Reader.
Compound-treated samples were normalized to samples treated with DMSO alone (no inhibition) and to samples treated with DAPT. EC50 values were calculated from values reported as percent of DMSO controls using nonlinear regression, based on a sigmoidal dose response (variable slope) model. GraphPAD software from Prism used for calculation.

SMILES	EC50	EC50 (Homo sapiens)
COc1nc(C2=NOCC(c3cccc(C(F)(F)F)c3)N2)ccc1-n1cnc(C)c1 (single isomer, unassigned; (+)) [Example 113B, (+)-3-(6-methoxy-5-(4-methyl-1H-imidazol-1-yl)pyridin-2-yl)-5-(3-(trifluoromethyl)phenyl)-5,6-dihydro-4H-1,2,4-oxadiazine]	43 nM	–
COc1nc(C2=NOCC(c3nn(C)c4ccccc34)N2)ccc1-n1cnc(C)c1 (single isomer, unassigned; (-)) [Example 124A, (−)-3-(6-methoxy-5-(4-methyl-1H-imidazol-1-yl)pyridin-2-yl)-5-(1-methyl-1H-indazol-3-yl)-5,6-dihydro-4H-1,2,4-oxadiazine]	1060 nM	–
COc1nc(C2=NOCC(c3ccc4ncccc4c3)N2)ccc1-n1cnc(C)c1 (single isomer, unassigned; (+)) [Example 224B, (+)-3-(6-methoxy-5-(4-methyl-1H-imidazol-1-yl)pyridin-2-yl)-5-(quinolin-6-yl)-5,6-dihydro-4H-1,2,4-oxadiazine]	294 nM	–
COc1nc(C2=NOCC(c3csc4ccccc34)N2)ccc1-n1cnc(C)c1 (single isomer, unassigned; (+)) [Example 68B, (+)-5-(benzo [b]thiophen-3-yl)-3-(6-methoxy-5-(4-methyl-1H-imidazol-1-yl)pyridin-2-yl)-5,6-dihydro-4H-1,2,4-oxadiazine]	20.8 nM	–
COc1nc(C2=NOCC(c3cc4c(Cl)cccc4o3)N2)ccc1-n1cnc(C)c1 (single isomer, unassigned; (-)) [Example 96A, (−)-5-(4-chlorobenzofuran-2-yl)-3-(6-methoxy-5-(4-methyl-1H-imidazol-1-yl)pyridin-2-yl)-5,6-dihydro-4H-1,2,4-oxadiazine]	1010 nM	–
COc1nc(C2=NOCC(C)N2)ccc1-n1cnc(C)c1 (single isomer, unassigned; (+)) [Example 149A, (+)-3-(6-methoxy-5-(4-methyl-1H-imidazol-1-yl)pyridin-2-yl)-5-methyl-5,6-dihydro-4H-1,2,4-oxadiazine]	–	> 3000 nM
COc1nc(C2=NOCC(c3nc4ccccc4s3)N2)ccc1-n1cnc(C)c1 (single isomer, unassigned; (+)) [Example 208B, (+)-5-(benzo [d]thiazol-2-yl)-3-(6-methoxy-5-(4-methyl-1H-imidazol-1-yl)pyridin-2-yl)-5,6-dihydro-4H-1,2,4-oxadiazine]	74 nM	–
COc1nc(C2=NOCC(c3cc4ccccc4o3)N2)ccc1-n1cnc(C)c1 (single isomer, unassigned; (+)) [Example 186B, (+)-5-(benzofuran-2-yl)-3-(6-methoxy-5-(4-methyl-1H-imidazol-1-yl)pyridin-2-yl)-5,6-dihydro-4H-1,2,4-oxadiazine]	38.4 nM	–
COc1nc(C2=NOCC(c3ccc(C(F)(F)F)cc3)N2)ccc1-n1cnc(C)c1 (single isomer, unassigned; (+)) [Example 59B, (+)-3-(6-methoxy-5-(4-methyl-1H-imidazol-1-yl)pyridin-2-yl)-5-(4-(trifluoromethyl)phenyl)-5,6-dihydro-4H-1,2,4-oxadiazine]	33.7 nM	–
COc1nc(C2=NOCC(c3cccc(C(F)(F)F)c3)N2C)ccc1-n1cnc(C)c1 (stereo not shown) [Example 213, 3-(6-methoxy-5-(4-methyl-1H-imidazol-1-yl)pyridin-2-yl)-4-methyl-5-(3-(trifluoromethyl)phenyl)-5,6-dihydro-4H-1,2,4-oxadiazine]	55.7 nM	–
COc1nc(C2=NOCC(c3ccc(F)c(C(F)(F)F)c3)N2)ccc1-n1cnc(C)c1 (single isomer, unassigned) [Example 44B, 5-(4-fluoro-3-(trifluoromethyl)phenyl)-3-(6-methoxy-5-(4-methyl-1H-imidazol-1-yl)pyridin-2-yl)-5,6-dihydro-4H-1,2,4-oxadiazine]	21.6 nM	–
COc1nc(C2=NOCC(c3ccccn3)N2)ccc1-n1cnc(C)c1 (single isomer, unassigned; (+)) [Example 168A, (+)-3-(6-methoxy-5-(4-methyl-1H-imidazol-1-yl)pyridin-2-yl)-5-(pyridin-2-yl)-5,6-dihydro-4H-1,2,4-oxadiazine]	–	> 3000 nM
COc1nc(C2=NOCC(c3cn(C)c4cc(F)c(C(F)(F)F)cc34)N2)ccc1-n1cnc(C)c1 (single isomer, unassigned; (+)) [Example 104B, (+)-5-(6-fluoro-1-methyl-5-(trifluoromethyl)-1H-indol-3-yl)-3-(6-methoxy-5-(4-methyl-1H-imidazol-1-yl)pyridin-2-yl)-5,6-dihydro-4H-1,2,4-oxadiazine]	4.6 nM	–
COc1nc(C2=NOCC(c3cccc(S(C)(=O)=O)c3)N2)ccc1-n1cnc(C)c1 (single isomer, unassigned; (+)) [Example 214B, (+)-3-(6-methoxy-5-(4-methyl-1H-imidazol-1-yl)pyridin-2-yl)-5-(3-(methylsulfonyl)phenyl)-5,6-dihydro-4H-1,2,4-oxadiazine]	904 nM	–

Results, then the molecule that gave them:

EC50	EC50 (Homo sapiens)	SMILES
920 nM	–	COc1nc(C2=NOCC(c3ccc(Cl)c(C4CC4)c3)N2)ccc1-n1cnc(C)c1 (single isomer, unassigned; (-)) [Example 239A, (−)-5-(4-chloro-3-cyclopropylphenyl)-3-(6-methoxy-5-(4-methyl-1H-imidazol-1-yl)pyridin-2-yl)-5,6-dihydro-4H-1,2,4-oxadiazine]
73.8 nM	–	COc1nc(C2=NOCC(c3ccc(C)cc3)N2)ccc1-n1cnc(C)c1 (single isomer, unassigned; (+)) [Example 227B, (+)-3-(6-methoxy-5-(4-methyl-1H-imidazol-1-yl)pyridin-2-yl)-5-(p-tolyl)-5,6-dihydro-4H-1,2,4-oxadiazine]
120 nM	–	COc1nc(C2=NOCC(c3cn(C)c4cc(F)c(C)cc34)N2)ccc1-n1cnc(C)c1 (single isomer, unassigned; (-)) [Example 257A, (−)-5-(6-fluoro-1,5-dimethyl-1H-indol-3-yl)-3-(6-methoxy-5-(4-methyl-1H-imidazol-1-yl)pyridin-2-yl)-5,6-dihydro-4H-1,2,4-oxadiazine]
9.2 nM	–	COc1nc(C2=NOCC(c3cc4ccc(C5CC5)cc4o3)N2)ccc1-n1cnc(C)c1 (single isomer, unassigned; (+)) [Example 236B, (+)-5-(6-cyclopropylbenzofuran-2-yl)-3-(6-methoxy-5-(4-methyl-1H-imidazol-1-yl)pyridin-2-yl)-5,6-dihydro-4H-1,2,4-oxadiazine]
> 3000 nM	–	COc1nc(C2=NOCC(c3ccc4scnc4c3)N2)ccc1-n1cnc(C)c1 (single isomer, unassigned; (-)) [Example 240A, (−)-5-(benzo[d]thiazol-5-yl)-3-(6-methoxy-5-(4-methyl-1H-imidazol-1-yl)pyridin-2-yl)-5,6-dihydro-4H-1,2,4-oxadiazine]
429 nM	–	COc1nc(C2=NOCC(c3cn(C)c4cc(C#N)ccc34)N2)ccc1-n1cnc(C)c1 (single isomer, unassigned; (-)) [Example 249A, (−)-3-(3-(6-methoxy-5-(4-methyl-1H-imidazol-1-yl)pyridin-2-yl)-5,6-dihydro-4H-1,2,4-oxadiazin-5-yl)-1-methyl-1H-indole-6-carbonitrile]
109 nM	–	COc1nc(C2=NOCC(c3ccc4scnc4c3)N2)ccc1-n1cnc(C)c1 (single isomer, unassigned; (+)) [Example 240B, (+)-5-(benzo[d]thiazol-5-yl)-3-(6-methoxy-5-(4-methyl-1H-imidazol-1-yl)pyridin-2-yl)-5,6-dihydro-4H-1,2,4-oxadiazine]
71.4 nM	–	COc1nc(C2=NOCC(c3cn(C)c4cc(F)cc(F)c34)N2)ccc1-n1cnc(C)c1 (single isomer, unassigned; (-)) [Example 226B, (−)-5-(4,6-difluoro-1-methyl-1H-indol-3-yl)-3-(6-methoxy-5-(4-methyl-1H-imidazol-1-yl)pyridin-2-yl)-5,6-dihydro-4H-1,2,4-oxadiazine]
113 nM	–	COc1nc(C2=NOCC(c3ccc4nc(C)sc4c3)N2)ccc1-n1cnc(C)c1 (single isomer, unassigned; (+)) [Example 238B, (+)-3-(6-methoxy-5-(4-methyl-1H-imidazol-1-yl)pyridin-2-yl)-5-(2-methylbenzo[d]thiazol-6-yl)-5,6-dihydro-4H-1,2,4-oxadiazine]
1440 nM	–	COc1nc(C2=NOCC(c3ccc(C(C)(C)O)cc3)N2)ccc1-n1cnc(C)c1 (single isomer, unassigned; (-)) [Example 268A, (−)-2-(4-(3-(6-methoxy-5-(4-methyl-1H-imidazol-1-yl)pyridin-2-yl)-5,6-dihydro-4H-1,2,4-oxadiazin-5-yl)phenyl)propan-2-ol]
229 nM	–	COc1nc(C2=NOCC(c3cn(C)c4c(F)cccc34)N2)ccc1-n1cnc(C)c1 (single isomer, unassigned; (-)) [Example 231A, (−)-5-(7-fluoro-1-methyl-1H-indol-3-yl)-3-(6-methoxy-5-(4-methyl-1H-imidazol-1-yl)pyridin-2-yl)-5,6-dihydro-4H-1,2,4-oxadiazine]
